Measured values published in patent US9175013B2, “Fused aminodihydrothiazine derivatives” (Eisai R&D Management Co., Ltd., priority 2011, dated 2015).
Where two headings read alike, the source gives them in different places.

Experiment: Rat in vivo CNS penetration: plasma, brain and CSF concentrations by LC-MS/MS
Conditions: male, Sprague Dawley, po, 10 mg/kg, 10 mg/kg p.o.; for concentration at 2 h / Kp at 2 h: 2 h post-dose; for concentration at 4 h / Kp at 4 h: 4 h post-dose; for concentration at 6 h / Kp at 6 h: 6 h post-dose; for concentration at 8 h / Kp at 8 h: 8 h post-dose
Experimental: Rat In Vivo CNS Penetration Male Sprague Dawley rats were acquired from Charles River UK Ltd. (Margate, UK) and housed according to UK Home Office guidelines. Drugs were made up to the appropriate concentrations in 0.5% methyl cellulose. Animals were dosed orally (2 mL/kg) by gavage at the doses outlined in Tables 1 to 4 below. At the time points post-dosing, specified in the Tables 1 to 4 below the animals were administered an i.p. injection of sodium pentobarbitone (approximately 330 mg/kg for terminal anaesthesia). Using a guillotine, the animals were decapitated and trunk blood collected into 15 ml Falcon tubes containing 100 IU heparin. Blood was vortexed followed by centrifugation at 6000 rpm, 4° C. for 5 minutes. Plasma was collected for DMPK and ELISA assays and stored at −80° C. until use. Brains were dissected out and divided along the midline, weighed and stored at −80° C. until further use. Method for Analysis of Plasma, Brain and CSF Samples Test compound was prepared as a 1 mg free base/mL solution in DMSO, vortexed and sonicated for 5 min. The 1 mg/mL DMSO solution was diluted to 10 and 30 μg/mL acetonitrile stocks, by adding 10 μL to 990 μL acetonitrile and 30 μL to 970 acetonitrile, respectively. The 10 and 30 μg/mL acetonitrile stocks were then serially diluted 1:9 (v/v) (100 μL stock into 900 μL acetonitrile) to give the following solutions: 0.003, 0.01, 0.03, 0.1, 0.3, 1, 3, 10 and 30 μg/mL acetonitrile. Control male Sprague Dawley rat plasma and the study plasma samples were stored at −80° C. until the day of analysis when they were thawed at room temperature. Control plasma was centrifuged (2,000 g for 10 min) and aliquoted (90 μL) into eppendorf tubes for preparation of standards and blank samples. Study samples were previously aliquoted (100 μL) into eppendorf tubes immediately following collection of the plasma. An aliquot (10 μL) of the appropriate acetonitrile stock was added to the control plasma (to give a final volume of 100 μL) to give the required calibration standards covering the range 1-3000 ng/mL. Double blank and blank samples were prepared by adding 10 μL of acetonitrile to 90 μL of blank plasma. Control male Sprague Dawley rat brain and the study brain samples were weighed after collection and stored at −80° C. until the day of analysis when they were thawed at room temperature. Once thawed brains were diluted with water (4 mL per gram of tissue) and homogenised using a mechanical homogeniser. An aliquot (100 μL) of each study sample was taken into Micronics tubes ready for analysis and sufficient aliquots (90 μL) of control brain homogenate prepared for preparation of standards and blanks. An aliquot (10 μL) of the appropriate acetonitrile stocks was added to the control brain homogenate (to give a final volume of 100 μL) to give the required calibration standards covering the range 1.5-5000 ng/g. Double blank and blank samples were prepared by adding 10 μL of acetonitrile to 90 μL of blank brain homogenate. Each plasma and brain homogenate sample, standard and blank (100 μL) was extracted with an aliquot (300 μL) of acetonitrile (containing 0.1% formic acid and 100 ng/mL of an appropriate internal standard). Double blanks were extracted with an aliquot (300 μL) of acetonitrile containing 0.1% formic acid). All samples, standards and blanks were then vortex mixed and centrifuged (2000 g for 15 min). An aliquot (50 μL) of the resulting supernatant was then taken into a 2 mL 96-deep well plate and diluted with acetonitrile:water (50:50 v/v) (150 μL) ready for analysis by a specific LC-MS/MS method. Control male Sprague Dawley rat CSF and the study CSF samples were stored at −80° C. until the day of analysis when they were thawed at room temperature. An aliquot (50 μL) of each study sample was taken into Micronics tubes ready for analysis and sufficient aliquots (45 μL) of control CSF prepared for preparation of standards and blanks. […]

[1] = CSF, CSF concentration, read-out: [CSF]
[2] = brain, total brain concentration, read-out: [Br]
[3] = brain, unbound brain, [Br] x Br Fu, read-out: [Bru]
[4] = plasma, total plasma concentration, read-out: [Pl]
[5] = plasma, unbound plasma, [Pl] x Pl Fu, read-out: [Plu]

## COc1cnc(C(=O)Nc2ccc(F)c([C@]34CO[C@H](C(F)F)[C@H]3CSC(N)=N4)c2)cn1 [Example 3, N-(3-((4aS,5S,7aS)-2-amino-5-(difluoromethyl)-4a,5,7,7a-tetrahydro-4H-furo[3,4-d][1,3]thiazin-7a-yl)-4-fluorophenyl)-5-methoxypyrazine-2-carboxamide]
[1]
  concentration at 2 h: 34 nM
  concentration at 4 h: 16 nM
  concentration at 6 h: 15 nM
  concentration at 8 h: 9 nM
CSF, read-out: CSF:Plu
  Kp at 2 h: 0.6
  Kp at 4 h: 0.5
  Kp at 6 h: 0.5
  Kp at 8 h: 0.7
brain, read-out: Brtot:Pltot
  Kp at 2 h: 2.8
  Kp at 4 h: 2.5
  Kp at 6 h: 2.4
  Kp at 8 h: 3
brain, read-out: Bru:Plu
  Kp at 2 h: 0.7
  Kp at 4 h: 0.6
  Kp at 6 h: 0.6
  Kp at 8 h: 0.7
[2]
  concentration at 2 h: 1090 nM
  concentration at 4 h: 576 nM
  concentration at 6 h: 561 nM
  concentration at 8 h: 257 nM
[3]
  concentration at 2 h: 38 nM
  concentration at 4 h: 20 nM
  concentration at 6 h: 20 nM
  concentration at 8 h: 9 nM
[4]
  concentration at 2 h: 385 nM
  concentration at 4 h: 226 nM
  concentration at 6 h: 232 nM
  concentration at 8 h: 85 nM
[5]
  concentration at 2 h: 55 nM
  concentration at 4 h: 32 nM
  concentration at 6 h: 33 nM
  concentration at 8 h: 12 nM

## COc1cnc(C(=O)Nc2ccc(F)c([C@]34CO[C@H](CF)[C@H]3CSC(N)=N4)c2)cn1 [Example 2, N-(3-((4aS,5S,7aS)-2-amino-5-(fluoromethyl)-4a,5,7,7a-tetrahydro-4H-furo[3,4-d][1,3]thiazin-7a-yl)-4-fluorophenyl)-5-methoxypyrazine-2-carboxamide]
[1]
  concentration at 2 h: 133 nM
  concentration at 4 h: 201 nM
  concentration at 6 h: 60 nM
  concentration at 8 h: 68 nM
CSF, read-out: CSF:Plu
  Kp at 2 h: 0.6
  Kp at 4 h: 1.2
  Kp at 6 h: 0.7
  Kp at 8 h: 1.2
brain, read-out: Brtot:Pltot
  Kp at 2 h: 2.1
  Kp at 4 h: 2.1
  Kp at 6 h: 2
  Kp at 8 h: 2.1
brain, read-out: Bru:Plu
  Kp at 2 h: 0.6
  Kp at 4 h: 0.5
  Kp at 6 h: 0.5
  Kp at 8 h: 0.6
[2]
  concentration at 2 h: 1780 nM
  concentration at 4 h: 1340 nM
  concentration at 6 h: 703 nM
  concentration at 8 h: 479 nM
[3]
  concentration at 2 h: 118 nM
  concentration at 4 h: 88 nM
  concentration at 6 h: 46 nM
  concentration at 8 h: 32 nM
[4]
  concentration at 2 h: 850 nM
  concentration at 4 h: 645 nM
  concentration at 6 h: 353 nM
  concentration at 8 h: 224 nM
[5]
  concentration at 2 h: 214 nM
  concentration at 4 h: 163 nM
  concentration at 6 h: 89 nM
  concentration at 8 h: 56 nM

## COc1cnc(C(=O)Nc2cc(F)c(F)c([C@]34CO[C@H](CF)[C@H]3CSC(N)=N4)c2)cn1 [Example 4, N-(3-((4aS,5S,7aS)-2-amino-5-(fluoromethyl)-4a,5,7,7a-tetrahydro-4H-furo[3,4-d][1,3]thiazin-7a-yl)-4,5-difluorophenyl)-5-methoxypyrazine-2-carboxamide]
[1]
  concentration at 2 h: 33 nM
  concentration at 4 h: 40 nM
  concentration at 6 h: 13 nM
  concentration at 8 h: 8 nM
CSF, read-out: CSF:Plu
  Kp at 2 h: 0.6
  Kp at 4 h: 0.6
  Kp at 6 h: 0.6
  Kp at 8 h: 0.6
brain, read-out: Brtot:Pltot
  Kp at 2 h: 3.8
  Kp at 4 h: 3.4
  Kp at 6 h: 3.8
  Kp at 8 h: 3.7
brain, read-out: Bru:Plu
  Kp at 2 h: 0.6
  Kp at 4 h: 0.5
  Kp at 6 h: 0.6
  Kp at 8 h: 0.6
[2]
  concentration at 2 h: 1470 nM
  concentration at 4 h: 1620 nM
  concentration at 6 h: 609 nM
  concentration at 8 h: 385 nM
[3]
  concentration at 2 h: 31 nM
  concentration at 4 h: 34 nM
  concentration at 6 h: 13 nM
  concentration at 8 h: 8 nM
[4]
  concentration at 2 h: 392 nM
  concentration at 4 h: 482 nM
  concentration at 6 h: 162 nM
  concentration at 8 h: 105 nM
[5]
  concentration at 2 h: 51 nM
  concentration at 4 h: 63 nM
  concentration at 6 h: 21 nM
  concentration at 8 h: 14 nM
